Patent publication US20060154904A1, “Betulinol derivatives as anti-HIV agents” (Cornell Research Foundation, Inc., priority 2004, published 2006)
Where two headings read alike, the source gives them in different places.

What was measured:
another HIV-1 isolate = experiment: effect on 174XCEM cells chronically infected with another HIV-1 isolate; type: cell-based; conditions: single dose 1 μg/ml
Method: Agents were also evaluated for an effect on 174XCEM cells chronically infected with another HIV-1 isolate.

HIV-1 IIIB isolate = experiment: HIV-1 inhibitory effect, p24 antigen capture ELISA in acutely infected 174XCEM cells; type: cell-based; conditions: for inhibition of HIV infection (FIG. 7) / anti-HIV-1 activity (p24 OD, FIG. 6): 1 μg/ml; for dose-related anti-HIV effect (FIG. 8): doses of 0.5, 1 .5, and 2 μg/ml; for anti-HIV-1 activity (p24 OD, FIG. 6): 4 days, compared with other betulinol derivatives
[1] = solubility in DMSO diluted with culture medium, GC against standard curve; type: physicochemical
Method: The residue was dissolved in chloroform analyzed on GC.
Ethyl ether was then evaporated.

[2] = system: Human T-B hybridoma cell line 174XCEM; experiment: cell viability by trypan blue dye exclusion; type: cell-based; conditions: for cell toxicity: doses of 0.5, 1 .5, and 2 μg/ml; for effect on total cell number or cell viability: trypan blue at four days and seven days
Source text: Dimethyl sulfoxide (“DMSO”) buffer was used as “no virus” control.

[3] = tolerability of solubilized drug in mice with prostate cancer cell xenografts; type: in vivo; conditions: final concentration 22% ethanol and 2×10^−3 mol per liter of betulonic acid
AZT-resistant HIV strain = experiment: anti-HIV activity against AZT-resistant patient isolates in MT-2 cells; type: cell-based
Source text: These isolates were used to infect MT-2 cells in vitro.

cells = conditions: cited from earlier work
[4] = solubilization in PBS containing human γ-globulin, human albumin and ethanol; type: physicochemical; conditions: 1 × 10^−3 mol/L
[5] = solubility in human serum; type: physicochemical; conditions: 1.34 mg in 31 μL ethanol and 700 μL human serum
HIV = conditions: Sun et al., J. Med. Chem. 41:4648-4657 (1998); cited from earlier work
[6] = culture medium containing 20% DMSO, calculated from amount and volume

For `C=C(C)C1CCC2(CO)CC[C@]3(C)[C@H](CC[C@@H]4[C@@]5(C)CCC(O)C(C)(C)[C@@H]5CC[C@]43C)C12` (stereo partly drawn) [betulinol, lup-20(29)-ene-3β, 28-diol], the “inhibition in chronically infected cells” value (another HIV-1 isolate) was “minimal effect”, the “inhibition of HIV infection (FIG. 7)” value (HIV-1 IIIB isolate) was “no effect” and the “dose-related anti-HIV effect (FIG. 9)” value (HIV-1 IIIB isolate; doses 1.3, 1.6, and 2 μg/ml) was “increasing anti-HIV effect”.
With `C=C(C)C1CCC2(C(=O)NCCCCC(NC(=O)C(CCCCNC(=O)C34CCC(C(=C)C)C3[C@@H]3CC[C@H]5[C@]6(C)CCC(=O)C(C)(C)[C@H]6CC[C@]5(C)[C@@]3(C)CC4)NC(=O)OC(C)(C)C)C(=O)O)CC[C@]3(C)[C@H](CC[C@@H]4[C@@]5(C)CCC(=O)C(C)(C)[C@@H]5CC[C@]43C)C12` (stereo partly drawn) [Boc-Dimer] the “Concentration of drug (mg/mL)” value [1, 6] was 0.6 mg/mL and the “Concentration of drug (mol/L)” value [1, 6] was 0.0005 mol/L.
For `C=C(C)[C@@H]1CC[C@]2(C=O)CC[C@]3(C)[C@H](CC[C@@H]4[C@@]5(C)CCC(=O)C(C)(C)[C@@H]5CC[C@]43C)[C@@H]12` [betulone aldehyde], the “inhibition in chronically infected cells” value (another HIV-1 isolate) was “minimal effect”, the “inhibition of HIV infection (FIG. 7)” value (HIV-1 IIIB isolate) was 37% and the “dose-related anti-HIV effect (FIG. 8)” value (HIV-1 IIIB isolate) was “Progressive increases in anti-HIV effect”. The cell toxicity [2] was “without cell toxicity”.
In the case of `C=C(C)[C@@H]1CC[C@]2(CO)CC[C@]3(C)[C@H](CC[C@@H]4[C@@]5(C)CC[C@H](OC(C)=O)C(C)(C)[C@@H]5CC[C@]43C)[C@@H]12` [3-acetoxy betulin], the “anti-HIV-1 activity (p24 OD, FIG. 6)” value (HIV-1 IIIB isolate) is reported as “superior” and the “effect on total cell number or cell viability” value [2] is reported as “no effect”.
With `C=C(C)C1CCC2(C(=O)NCCCCC(NC(=O)OC(C)(C)C)C(=O)O)CC[C@]3(C)[C@H](CC[C@@H]4[C@@]5(C)CCC(=O)C(C)(C)[C@@H]5CC[C@]43C)C12` (stereo partly drawn) [Boc-Monomer] the tolerability [3] was “well tolerated” and the “Concentration of drug (mg/mL)” value [1] was 0.7 mg/mL.
With `Cc1cn([C@H]2C[C@H](N=[N+]=[N-])[C@@H](CO)O2)c(=O)[nH]c1=O` [AZT, 3′-azido-3′-deoxythymidine, reference compound] the “inhibition in the HIV infection” value (AZT-resistant HIV strain; day 8) was “ineffective”.
In the case of `C=C(C)[C@@H]1CC[C@]2(COC(C)=O)CC[C@]3(C)[C@H](CC[C@@H]4[C@@]5(C)CC[C@H](O)C(C)(C)[C@@H]5CC[C@]43C)[C@@H]12` [28-acetoxy betulin], the “anti-HIV-1 activity (p24 OD, FIG. 6)” value (HIV-1 IIIB isolate) is reported as “superior”, the “dose-related anti-HIV-1 activity (FIG. 10)” value (HIV-1 IIIB isolate; doses 0.5, 1, 1.5, and 2 μg/ml) is reported as “comparable anti-HIV-1 activity” and the “effect on total cell number or cell viability” value [2] is reported as “no effect”.
In the case of `C=C(C)C1CCC2(C(=O)O)CC[C@]3(C)[C@H](CC[C@@H]4[C@@]5(C)CCC(=O)C(C)(C)[C@@H]5CC[C@]43C)C12` (stereo partly drawn) [betulonic acid], the tolerability [3] is listed as “well tolerated”, the cytotoxicity (cells) is listed as “cytotoxic” and the Observation ([4]; γ-globulin in PBS 0 mL, albumin in PBS 2.50 mL, ethanol 280 μL) is listed as “Complete”. The Observation ([4]; γ-globulin in PBS 0.32 mL, albumin in PBS 2.85 mL, ethanol 352 μL) was “Clear”, the Observation ([4]; γ-globulin in PBS 0.69 mL, albumin in PBS 2.07 mL, ethanol 308 μL) was “Almost Clear” and the Observation ([4]; γ-globulin in PBS 1.48 mL, albumin in PBS 0.49 mL, ethanol 220 μL) was “Cloudy”. The Observation ([4]; γ-globulin in PBS 1.48 mL, albumin in PBS 1.48 mL, ethanol 330 μL) was “Little Cloudy”, the Observation ([4]; γ-globulin in PBS 2.50 mL, albumin in PBS 0 mL, ethanol 280 μL) was “Suspension” and the “amount of betulonic acid dissolved” value ([1]; out of 3 mg, 1% DMSO in culture medium containing 10% FBS, nominal 0.5 mg/mL) was 0.4 mg. For the same molecule, the Observation [5] was “Clear Solution”, the “inhibition in the HIV infection” value (AZT-resistant HIV strain; day 5) was 56% and the “inhibition in the HIV infection” value (AZT-resistant HIV strain; day 8) was 44%.
With `C=C(C)C1CCC2(COC)CCC3(C)C(CCC4C5(C)CCC(OC)C(C)(C)C5CCC43C)C12` (stereo not drawn) [betulin dimethyl ether] the “anti-HIV-1 activity (p24 OD, FIG. 6)” value (HIV-1 IIIB isolate) was “superior” and the “effect on total cell number or cell viability” value [2] was “no effect”.
In the case of `C=C(C)[C@@H]1CC[C@]2(COC(C)=O)CC[C@]3(C)[C@H](CC[C@@H]4[C@@]5(C)CC[C@H](OC(C)=O)C(C)(C)[C@@H]5CC[C@]43C)[C@@H]12` [betulin diacetate], the therapeutic index (HIV) is listed as “low therapeutic index”, the “inhibition in chronically infected cells” value (another HIV-1 isolate) is listed as 20% and the “inhibition of HIV infection (FIG. 7)” value (HIV-1 IIIB isolate) is listed as 57%. The “dose-related anti-HIV effect (FIG. 8)” value (HIV-1 IIIB isolate) was “Progressive increases in anti-HIV effect” and the cell toxicity [2] was “without cell toxicity”.
